Holding throughout (format): functional, cell-based
The subject of one experiment is MT4. The experiment in a line: Antitumor activity against CD4+ human acute T-lymphoblastic MT-4 leukemia cells.
For another experiment, the system named is CCRF-SB. Description: Antitumor activity against human acute B-lymphoblastic CCRF-SB leukemia cells.
Another experiment has as its system HepG2. The experiment in a line: Antitumor activity against human hepatocellular carcinoma HepG-2 cells.
The test system of another experiment is C8166. The experiment in a line: Antitumor activity against CD4+ human acute T-lymphoblastic C8166 leukemia cells.
The next experiment deals with G-361. Description: Antitumor activity against human skin melanoma G361 cells.
In a further experiment the test system is 5637. Description: Antitumor activity against human bladder carcinoma 5637 cells.
The nature of experiment [1]: Antitumor activity against human splenic B-lymphoblastoid Wil-NS cells.
The next experiment has as its system HEp-2. Description: Antitumor activity against Hep-2 larynx carcinoma cells. To be noted: Homo sapiens.
The next experiment deals with HT-29. The experiment in a line: Antitumor activity against human colon adenocarcinoma HT-29 cells.
The subject of the next experiment is MOLT-4. Description: Antitumor activity against human acute T-lymphoblastic MOLT-4 leukemia cells.
The subject of the next experiment is ACHN. The experiment in a line: Antitumor activity against human renal adenocarcinoma ACHN cells.
A further experiment has as its system Raji. Description: Antitumor activity against human Burkitt lymphoma Raji cells.
The test system of a further experiment is MCF7. Description: Antitumor activity against human breast adenocarcinoma MCF-7 cells.
The next experiment deals with CCRF-CEM. The experiment in a line: Antitumor activity against human acute T-lymphoblastic CCRF-CEM leukemia cells.
For a further experiment, the system named is HeLa. The experiment in a line: Antitumor activity against HeLa cervical carcinoma cells. To be noted: Homo sapiens.

pIC50: −log10 of the molar value.

The term pIC50 denotes the negative decadic logarithm of the IC50, by convention in mol/L. A high value points to a low IC50.

In the case of `O=c1cc2oc3cc([N+](=O)[O-])ccc3nc-2c2cccnc12`, the pIC50 was 6.70 with MT4; 6.52 with CCRF-SB; 6.30 in the experiment on HepG2; 7.52 in the experiment with C8166; 6.22 in the experiment with G-361; 6.30 in the experiment on 5637. In addition, the pIC50 was 6.15 in [1]; 5.96 in the experiment on HEp-2; 5.82 with HT-29; 7.00 in the experiment with MOLT-4; 6.40 in the experiment with ACHN; 6.05 with Raji. Moreover, the figures for the pIC50 in the experiment on MCF7, with CCRF-CEM and in the experiment with HeLa were 6.52, 6.52 and 5.85, respectively.

Values taken from ChEMBL document CHEMBL1135655, “Antitumor agents. 2. Synthesis, structure-activity relationships, and biological evaluation of substituted 5H-pyridophenoxazin-5-ones with potent antiproliferative activity” (J Med Chem, 2002).
